According to patent publication EP0840727B1, “3-HYDROXY-2(1H)-[…] AGENTS” (priority 1995, dated 1997):
Marks after values point to notes of the source that are not given here.

Experiments:
Solubility in water = format: physicochemical; settings: in words
[1] = Promoting excretion of U(VI) in mice by injected ligand; format: in vivo; settings: U(VI), ligand 30 mmol.kg-1 i.p at 3 to 5 min after actinide i.v., kill at 24 h
Source text: (§1) Animal studies were completed using methods detailed in Radiation Protection Dosimetry, in press, P. W. Durbin et al., "In Vivo Chelation of Am(III), Pu(IV), Np(V) and U(VI) in Mice by TREN-(Me-3,2-HOPO)"; Radiation Protection Dosimetry, 17, No. 1, 1989, p. 351, P. W. Durbin et al., "Removal of ^238Pu(IV) from Mice by Polycatechoylate, -Hydroxamate or -Hydroxypyridinonate Ligands"; Radiation Research, 99, 1984, p. 85, P. W. Durbin et al., "Specific Sequestering Agents for the Actinides ..."; Radiation Research, 99, 1984, p. 106, P. W. Durbin et al., "Removal of Pu and Am from Beagles and Mice ..."; Radiation Research, 81, 1980, p. 170, R. D. Lloyd et al., and P. W. Durbin et al., "Specific Sequestering Agents for the Actinides ...". The foregoing articles are hereby incorporated by reference.
The ^232U was obtained from the Isotope Products Laboratory, Burbank, CA, and ^234,235U was obtained as U metal from long-held LBL storage. The two U sources were combined and dissolved in 6N HNO3, dried, and redissolved in 0.1 N HCl. The daughter radioactivities were removed by elution from a Dowex-50X4 column (22 cm length, 0.7 cm diameter, 1.5 mL·min^-1 flow rate) with 3.2N HCl. The U fractions (previously identified by a trial run with ^234,235U alone) were combined, dried, and redissolved in 0.14M NaCl at pH 5.5.
(§2) One of the comparative chelating agents TREN-Me-3,2-HOPO, was also tested for effectiveness in promoting excretion of ^241Am(III), ^237Np(V), and ^232U(VI) by injection into mice, as follows: Mice, in groups of five, each received an intravenous injection of (a) 1100 Bq of ^241AM(III) in 0.2 mL of citrate buffer, (b) 150 Bq of ^232UO2Cl2 plus 3.6 mg of ^235UO2Cl2 in 0.2 mL of saline, or (c) 200 Bq of ^237NpO2Cl (7.5 mg of ^237NpO2Cl) in 0.2 mL of saline. Three to five minutes later, […] of TREN-Me-3,2-HOPO was injected intraperitoneally in 0.5 mL of saline. The mice were killed 24 hours after the actinide injection, frozen, and dissected after partial thawing. The skeleton, soft tissues, and separated excreta were radioanalyzed by counting the ^241Am gamma rays, or the alpha particles emitted by ^237Np or ^232U (and its ingrowing daughters). Removal of those actinides from mice by injected TREN-Me-3,2-HOPO is summarized in Table 5, which also includes data for mice similarly treated with CaNa3-DTPA and for actinide-injected controls. […] The structure of Am(III)-TREN-Me-3,2-HOPO is considered to resemble that of the Gd(III) complexes (see example 20). Complexation of the fraction of Np(V) that is reduced in vivo to Np(IV) is considered to resemble that of Pu(IV). Complexation of U(VI) is considered to take place through binding to UO2^2+.

[2] = Promoting excretion of 241Am(III) in mice by injected ligand; format: in vivo; settings: Am(III), ligand 30 mmol.kg-1 i.p at 3 to 5 min after actinide i.v., kill at 24 h
Source text: as §1
Radionuclides used in the animal studies came from a variety of sources. However, they can be purchased commercially. The ^238Pu(IV) citrate and ^241Am(III) citrate solutions were prepared for animal injection by 8- to 10-fold dilution with 0.14M NaCl (pH 4) of concentrated stock solutions (0.08M sodium citrate buffer) that had been held in frozen storage at Lawrence Berkeley Laboratory (hereinafter LBL) for several years. [The ^238Pu(IV) was originally obtained from D. R. Atherton at the University of Utah Radiobiology Laboratory, Salt Lake City. The ^241Am(III) solution had been obtained many years earlier from the LBL Actinide Chemistry group.]
as §2

[3] = ligand 30 µmol kg^-1 ip at 1 h after iv ^238Pu(IV) citrate, kill at 24 h, reported previously, cited from earlier work
[4] = Promoting excretion of 237Np(V) in mice by injected ligand; format: in vivo; settings: Np(V), ligand 30 mmol.kg-1 i.p at 3 to 5 min after actinide i.v., kill at 24 h
Source text: as §1
The ^237Np(V) was obtained from J. Bucher of the LBL Actinide Chemistry group as NpO2Cl in 0.1 M HCl. It was diluted to the desired radioactivity concentration in 0.14M NaCl and the pH was adjusted to about 4.5 with NaOH just before use.
as §2

[5] = Fe(III) chelation; cited from earlier work

## CCCNC(=O)c1ccn(C)c(=O)c1O [3-hydroxy-1-methyl-4(1-propylcarbamoyl)-2(1H)-pyridinone]
Solubility in water
  solubility in water: very soluble in water

## O=C([O-])CN(CCN(CC(=O)[O-])CC(=O)[O-])CCN(CC(=O)[O-])CC(=O)[O-].[Ca+2].[Na+].[Na+].[Na+] [CaNa3-DTPA, reference compound]
[1]
  percent of injected actinide ± SD at 24 h, tissues: kidneys: 17 ± 2.8% of injected actinide
  percent of injected actinide ± SD at 24 h, tissues: skeleton: 19 ± 3.0% of injected actinide
  percent of injected actinide ± SD at 24 h, tissues: soft tissue: 2.2 ± 0.1% of injected actinide
  percent of injected actinide ± SD at 24 h, whole body: 38 ± 0.7% of injected actinide
[1]; feces, GI contents and urine combined
  percent of injected actinide at 24 h, combined excreta: 62^f percent of injected actinide
[1]; livers of some groups pooled
  percent of injected actinide ± SD at 24 h, tissues: liver: 1.0^c percent of injected actinide
[2]
  percent of injected actinide ± SD at 24 h, tissues: liver: 13 ± 1.5^d percent of injected actinide
  percent of injected actinide ± SD at 24 h, tissues: skeleton: 8.5 ± 0.9^d percent of injected actinide
  percent of injected actinide ± SD at 24 h, tissues: soft tissue: 1.9 ± 0.3^d percent of injected actinide
  percent of injected actinide ± SD at 24 h, whole body: 24 ± 1.3^d percent of injected actinide
[2]; pooled
  percent of injected actinide at 24 h, excreta: feces and GI contents: 8.0% of injected actinide
  percent of injected actinide at 24 h, excreta: urine 0-24 h: 68% of injected actinide
  percent of injected actinide at 24 h, tissues: kidneys: 0.4% of injected actinide
[3]; pooled samples
  percent of injected ^238Pu at 24 h, excreta: feces and GI contents: 5.1% of injected ^238Pu
  percent of injected ^238Pu at 24 h, excreta: urine 0-24 h: 61% of injected ^238Pu
[3]
  percent of injected ^238Pu ± SD at 24 h, tissues: liver: 17 ± 4.0% of injected ^238Pu
  percent of injected ^238Pu ± SD at 24 h, tissues: skeleton: 12 ± 2.3% of injected ^238Pu
  percent of injected ^238Pu ± SD at 24 h, tissues: soft tissue: 3.5 ± 1.6% of injected ^238Pu
  percent of injected ^238Pu ± SD at 24 h, whole body: 33 ± 6.6% of injected ^238Pu
[4]
  percent of injected actinide ± SD at 24 h, tissues: liver: 14 ± 5.7% of injected actinide
  percent of injected actinide ± SD at 24 h, tissues: skeleton: 40 ± 4.4% of injected actinide
  percent of injected actinide ± SD at 24 h, tissues: soft tissue: 3.5 ± 0.9% of injected actinide
  percent of injected actinide ± SD at 24 h, whole body: 58 ± 8.0% of injected actinide
[4]; pooled
  percent of injected actinide at 24 h, excreta: feces and GI contents: 1.5% of injected actinide
  percent of injected actinide at 24 h, excreta: urine 0-24 h: 40% of injected actinide
  percent of injected actinide at 24 h, tissues: kidneys: 1.3% of injected actinide

## O=C(NCc1cc(CNC(=O)c2cccc(=O)n2O)cc(CNC(=O)c2cccc(=O)n2O)c1)c1cccc(=O)n1O [ME-(1,2-HOPO)]
[3]; pooled samples
  percent of injected ^238Pu at 24 h, excreta: feces and GI contents: 43% of injected ^238Pu
  percent of injected ^238Pu at 24 h, excreta: urine 0-24 h: 9.6% of injected ^238Pu
  percent of injected ^238Pu at 24 h, tissues: kidneys: 1.8% of injected ^238Pu
[3]
  percent of injected ^238Pu ± SD at 24 h, tissues: liver: 18 ± 6.3^d percent of injected ^238Pu
  percent of injected ^238Pu ± SD at 24 h, tissues: skeleton: 17 ± 2.5% of injected ^238Pu
  percent of injected ^238Pu ± SD at 24 h, tissues: soft tissue: 10 ± 1.8% of injected ^238Pu
  percent of injected ^238Pu ± SD at 24 h, whole body: 47 ± 9.4% of injected ^238Pu

## O=C(N[C@H]1COC(=O)[C@@H](NC(=O)c2cccc(O)c2O)COC(=O)[C@@H](NC(=O)c2cccc(O)c2O)COC1=O)c1cccc(O)c1O [enterobacun]
[5]
  formation constant Kf: 10^49
  pM: 35.5
